# PMC11124822, “Discovery and Anticancer Screening of Novel Oxindole-Based Derivative Bearing Pyridyl Group as Potent and Selective Dual FLT3/CDK2 Kinase Inhibitor” (Pharmaceuticals, 2024)
# Tested on: MOLT-4
# Test: NCI-60 antiproliferative screen (SRB)
# Assay type: cell-based
# Conditions: Homo sapiens; 10 µM single dose, 48 h; MOLT-4 (Leukemia); read-out: Growth inhibition (%)
row,SMILES,inhibition at 10 µM [%]
1,"O=C1Nc2ccc(Cl)cc2C1=Cc1ccc(OCc2cccnc2)cc1 (mixture of isomers) [Compound 5k, (E/Z)-5-Chloro-3-[4-(pyridin-3-ylmethoxy)benzylidene] indolin-2-one]",52.6

# Tested on: RPMI-8226
# Test: NCI-60 antiproliferative screen (SRB)
# Assay type: cell-based, human
# Conditions: Homo sapiens; 10 µM single dose, 48 h; RPMI-8226 (Leukemia); read-out: Growth inhibition (%)
row,SMILES,inhibition at 10 µM [%]
1,"O=C1Nc2ccc(Cl)cc2C1=Cc1ccc(OCc2cccnc2)cc1 (mixture of isomers) [Compound 5k, (E/Z)-5-Chloro-3-[4-(pyridin-3-ylmethoxy)benzylidene] indolin-2-one]",29.7

# Tested on: HOP-62
# Test: NCI-60 antiproliferative screen (SRB)
# Assay type: cell-based, human
# Conditions: Homo sapiens; 10 µM single dose, 48 h; HOP-62 (NSCLC); read-out: Growth inhibition (%)
row,SMILES,inhibition at 10 µM [%]
1,"O=C1Nc2ccc(Cl)cc2C1=Cc1ccc(OCc2cccnc2)cc1 (mixture of isomers) [Compound 5k, (E/Z)-5-Chloro-3-[4-(pyridin-3-ylmethoxy)benzylidene] indolin-2-one]",0.56

# Tested on: HCC-2998
# Test: NCI-60 antiproliferative screen (SRB)
# Assay type: cell-based, human
# Conditions: Homo sapiens; 10 µM single dose, 48 h; HCC-2998 (Colon); read-out: Growth inhibition (%)
row,SMILES,inhibition at 10 µM [%]
1,"O=C1Nc2ccc(Cl)cc2C1=Cc1ccc(OCc2cccnc2)cc1 (mixture of isomers) [Compound 5k, (E/Z)-5-Chloro-3-[4-(pyridin-3-ylmethoxy)benzylidene] indolin-2-one]",-9.21

# Tested on: HCT-116
# Test: NCI-60 antiproliferative screen (SRB)
# Assay type: cell-based, human
# Conditions: Homo sapiens; 10 µM single dose, 48 h; HCT-116 (Colon); read-out: Growth inhibition (%)
row,SMILES,inhibition at 10 µM [%]
1,"O=C1Nc2ccc(Cl)cc2C1=Cc1ccc(OCc2cccnc2)cc1 (mixture of isomers) [Compound 5k, (E/Z)-5-Chloro-3-[4-(pyridin-3-ylmethoxy)benzylidene] indolin-2-one]",34.6

# Tested on: KM12
# Test: NCI-60 antiproliferative screen (SRB)
# Assay type: cell-based, human
# Conditions: Homo sapiens; 10 µM single dose, 48 h; KM12 (Colon); read-out: Growth inhibition (%)
row,SMILES,inhibition at 10 µM [%]
1,"O=C1Nc2ccc(Cl)cc2C1=Cc1ccc(OCc2cccnc2)cc1 (mixture of isomers) [Compound 5k, (E/Z)-5-Chloro-3-[4-(pyridin-3-ylmethoxy)benzylidene] indolin-2-one]",52.8

# Tested on: SW-620
# Test: NCI-60 antiproliferative screen (SRB)
# Assay type: cell-based, human
# Conditions: Homo sapiens; 10 µM single dose, 48 h; SW-620 (Colon); read-out: Growth inhibition (%)
row,SMILES,inhibition at 10 µM [%]
1,"O=C1Nc2ccc(Cl)cc2C1=Cc1ccc(OCc2cccnc2)cc1 (mixture of isomers) [Compound 5k, (E/Z)-5-Chloro-3-[4-(pyridin-3-ylmethoxy)benzylidene] indolin-2-one]",2.62

# Tested on: SF-295
# Test: NCI-60 antiproliferative screen (SRB)
# Assay type: cell-based, human
# Conditions: Homo sapiens; 10 µM single dose, 48 h; SF-295 (CNS); read-out: Growth inhibition (%)
row,SMILES,inhibition at 10 µM [%]
1,"O=C1Nc2ccc(Cl)cc2C1=Cc1ccc(OCc2cccnc2)cc1 (mixture of isomers) [Compound 5k, (E/Z)-5-Chloro-3-[4-(pyridin-3-ylmethoxy)benzylidene] indolin-2-one]",4.51

# Tested on: SF-539
# Test: NCI-60 antiproliferative screen (SRB)
# Assay type: cell-based, human
# Conditions: Homo sapiens; 10 µM single dose, 48 h; SF-539 (CNS); read-out: Growth inhibition (%)
row,SMILES,inhibition at 10 µM [%]
1,"O=C1Nc2ccc(Cl)cc2C1=Cc1ccc(OCc2cccnc2)cc1 (mixture of isomers) [Compound 5k, (E/Z)-5-Chloro-3-[4-(pyridin-3-ylmethoxy)benzylidene] indolin-2-one]",20.2

# Tested on: U251
# Test: NCI-60 antiproliferative screen (SRB)
# Assay type: cell-based, human
# Conditions: Homo sapiens, U-251; 10 µM single dose, 48 h; U251 (CNS); read-out: Growth inhibition (%)
row,SMILES,inhibition at 10 µM [%]
1,"O=C1Nc2ccc(Cl)cc2C1=Cc1ccc(OCc2cccnc2)cc1 (mixture of isomers) [Compound 5k, (E/Z)-5-Chloro-3-[4-(pyridin-3-ylmethoxy)benzylidene] indolin-2-one]",27.3

# Tested on: M14
# Test: NCI-60 antiproliferative screen (SRB)
# Assay type: cell-based, human
# Conditions: Homo sapiens; 10 µM single dose, 48 h; M14 (Melanoma); read-out: Growth inhibition (%)
row,SMILES,inhibition at 10 µM [%]
1,"O=C1Nc2ccc(Cl)cc2C1=Cc1ccc(OCc2cccnc2)cc1 (mixture of isomers) [Compound 5k, (E/Z)-5-Chloro-3-[4-(pyridin-3-ylmethoxy)benzylidene] indolin-2-one]",12.2

# Tested on: SK-MEL-2
# Test: NCI-60 antiproliferative screen (SRB)
# Assay type: cell-based, human
# Conditions: Homo sapiens; 10 µM single dose, 48 h; SK-MEL-2 (Melanoma); read-out: Growth inhibition (%)
row,SMILES,inhibition at 10 µM [%]
1,"O=C1Nc2ccc(Cl)cc2C1=Cc1ccc(OCc2cccnc2)cc1 (mixture of isomers) [Compound 5k, (E/Z)-5-Chloro-3-[4-(pyridin-3-ylmethoxy)benzylidene] indolin-2-one]",0.36

# Tested on: SK-MEL-28
# Test: NCI-60 antiproliferative screen (SRB)
# Assay type: cell-based, human
# Conditions: Homo sapiens; 10 µM single dose, 48 h; SK-MEL-28 (Melanoma); read-out: Growth inhibition (%)
row,SMILES,inhibition at 10 µM [%]
1,"O=C1Nc2ccc(Cl)cc2C1=Cc1ccc(OCc2cccnc2)cc1 (mixture of isomers) [Compound 5k, (E/Z)-5-Chloro-3-[4-(pyridin-3-ylmethoxy)benzylidene] indolin-2-one]",-20.5

# Tested on: UACC-257
# Test: NCI-60 antiproliferative screen (SRB)
# Assay type: cell-based, human
# Conditions: Homo sapiens; 10 µM single dose, 48 h; UACC-257 (Melanoma); read-out: Growth inhibition (%)
row,SMILES,inhibition at 10 µM [%]
1,"O=C1Nc2ccc(Cl)cc2C1=Cc1ccc(OCc2cccnc2)cc1 (mixture of isomers) [Compound 5k, (E/Z)-5-Chloro-3-[4-(pyridin-3-ylmethoxy)benzylidene] indolin-2-one]",2.42

# Tested on: OVCAR-3
# Test: NCI-60 antiproliferative screen (SRB)
# Assay type: cell-based, human
# Conditions: Homo sapiens; 10 µM single dose, 48 h; OVCAR-3 (Ovarian); read-out: Growth inhibition (%)
row,SMILES,inhibition at 10 µM [%]
1,"O=C1Nc2ccc(Cl)cc2C1=Cc1ccc(OCc2cccnc2)cc1 (mixture of isomers) [Compound 5k, (E/Z)-5-Chloro-3-[4-(pyridin-3-ylmethoxy)benzylidene] indolin-2-one]",-10.9

# Tested on: OVCAR-5
# Test: NCI-60 antiproliferative screen (SRB)
# Assay type: cell-based, human
# Conditions: Homo sapiens; 10 µM single dose, 48 h; OVCAR-5 (Ovarian); read-out: Growth inhibition (%)
row,SMILES,inhibition at 10 µM [%]
1,"O=C1Nc2ccc(Cl)cc2C1=Cc1ccc(OCc2cccnc2)cc1 (mixture of isomers) [Compound 5k, (E/Z)-5-Chloro-3-[4-(pyridin-3-ylmethoxy)benzylidene] indolin-2-one]",-34.5

# Tested on: OVCAR-8
# Test: NCI-60 antiproliferative screen (SRB)
# Assay type: cell-based, human
# Conditions: Homo sapiens; 10 µM single dose, 48 h; OVCAR-8 (Ovarian); read-out: Growth inhibition (%)
row,SMILES,inhibition at 10 µM [%]
1,"O=C1Nc2ccc(Cl)cc2C1=Cc1ccc(OCc2cccnc2)cc1 (mixture of isomers) [Compound 5k, (E/Z)-5-Chloro-3-[4-(pyridin-3-ylmethoxy)benzylidene] indolin-2-one]",23.4

# Tested on: NCI/ADR-RES
# Test: NCI-60 antiproliferative screen (SRB)
# Assay type: cell-based, human
# Conditions: Homo sapiens; 10 µM single dose, 48 h; NCI/ADR-RES (Ovarian); read-out: Growth inhibition (%)
row,SMILES,inhibition at 10 µM [%]
1,"O=C1Nc2ccc(Cl)cc2C1=Cc1ccc(OCc2cccnc2)cc1 (mixture of isomers) [Compound 5k, (E/Z)-5-Chloro-3-[4-(pyridin-3-ylmethoxy)benzylidene] indolin-2-one]",26

# Tested on: A498
# Test: NCI-60 antiproliferative screen (SRB)
# Assay type: cell-based, human
# Conditions: Homo sapiens; 10 µM single dose, 48 h; A498 (Renal); read-out: Growth inhibition (%)
row,SMILES,inhibition at 10 µM [%]
1,"O=C1Nc2ccc(Cl)cc2C1=Cc1ccc(OCc2cccnc2)cc1 (mixture of isomers) [Compound 5k, (E/Z)-5-Chloro-3-[4-(pyridin-3-ylmethoxy)benzylidene] indolin-2-one]",-31.6

# Tested on: CAKI-1
# Test: NCI-60 antiproliferative screen (SRB)
# Assay type: cell-based, human
# Conditions: Homo sapiens; 10 µM single dose, 48 h; CAKI-1 (Renal); read-out: Growth inhibition (%)
row,SMILES,inhibition at 10 µM [%]
1,"O=C1Nc2ccc(Cl)cc2C1=Cc1ccc(OCc2cccnc2)cc1 (mixture of isomers) [Compound 5k, (E/Z)-5-Chloro-3-[4-(pyridin-3-ylmethoxy)benzylidene] indolin-2-one]",51

# Tested on: RXF 393
# Test: NCI-60 antiproliferative screen (SRB)
# Assay type: cell-based, human
# Conditions: Homo sapiens; 10 µM single dose, 48 h; RXF 393 (Renal); read-out: Growth inhibition (%)
row,SMILES,inhibition at 10 µM [%]
1,"O=C1Nc2ccc(Cl)cc2C1=Cc1ccc(OCc2cccnc2)cc1 (mixture of isomers) [Compound 5k, (E/Z)-5-Chloro-3-[4-(pyridin-3-ylmethoxy)benzylidene] indolin-2-one]",6.84

# Tested on: PC-3
# Test: NCI-60 antiproliferative screen (SRB)
# Assay type: cell-based, human
# Conditions: Homo sapiens; 10 µM single dose, 48 h; PC-3 (Prostate); read-out: Growth inhibition (%)
row,SMILES,inhibition at 10 µM [%]
1,"O=C1Nc2ccc(Cl)cc2C1=Cc1ccc(OCc2cccnc2)cc1 (mixture of isomers) [Compound 5k, (E/Z)-5-Chloro-3-[4-(pyridin-3-ylmethoxy)benzylidene] indolin-2-one]",24.3

# Tested on: DU-145
# Test: NCI-60 antiproliferative screen (SRB)
# Assay type: cell-based, human
# Conditions: Homo sapiens; 10 µM single dose, 48 h; DU-145 (Prostate); read-out: Growth inhibition (%)
row,SMILES,inhibition at 10 µM [%]
1,"O=C1Nc2ccc(Cl)cc2C1=Cc1ccc(OCc2cccnc2)cc1 (mixture of isomers) [Compound 5k, (E/Z)-5-Chloro-3-[4-(pyridin-3-ylmethoxy)benzylidene] indolin-2-one]",0.75

# Tested on: MCF7
# Test: NCI-60 antiproliferative screen (SRB)
# Assay type: cell-based, human
# Conditions: Homo sapiens; 10 µM single dose, 48 h; MCF7 (Breast); read-out: Growth inhibition (%)
row,SMILES,inhibition at 10 µM [%]
1,"O=C1Nc2ccc(Cl)cc2C1=Cc1ccc(OCc2cccnc2)cc1 (mixture of isomers) [Compound 5k, (E/Z)-5-Chloro-3-[4-(pyridin-3-ylmethoxy)benzylidene] indolin-2-one]",55.5

# Tested on: MDA-MB-231
# Test: NCI-60 antiproliferative screen (SRB)
# Assay type: cell-based, human
# Conditions: Homo sapiens; 10 µM single dose, 48 h; MDA-MB-231 (Breast); read-out: Growth inhibition (%)
row,SMILES,inhibition at 10 µM [%]
1,"O=C1Nc2ccc(Cl)cc2C1=Cc1ccc(OCc2cccnc2)cc1 (mixture of isomers) [Compound 5k, (E/Z)-5-Chloro-3-[4-(pyridin-3-ylmethoxy)benzylidene] indolin-2-one]",9.08

# Tested on: MDA-MB-468
# Test: NCI-60 antiproliferative screen (SRB)
# Assay type: cell-based, human
# Conditions: Homo sapiens; 10 µM single dose, 48 h; MDA-MB-468 (Breast); read-out: Growth inhibition (%)
row,SMILES,inhibition at 10 µM [%]
1,"O=C1Nc2ccc(Cl)cc2C1=Cc1ccc(OCc2cccnc2)cc1 (mixture of isomers) [Compound 5k, (E/Z)-5-Chloro-3-[4-(pyridin-3-ylmethoxy)benzylidene] indolin-2-one]",12.5

# Tested on: SR
# Test: NCI-60 antiproliferative screen (SRB)
# Conditions: Homo sapiens, 48 h, read-out: Growth inhibition (%)
row,SMILES,inhibition at 10 µM [%]
1,"O=C1Nc2ccc(Cl)cc2C1=Cc1ccc(OCc2cccnc2)cc1 (mixture of isomers) [Compound 5k, (E/Z)-5-Chloro-3-[4-(pyridin-3-ylmethoxy)benzylidene] indolin-2-one]",66.1

# Tested on: OVCAR-4
# Test: NCI-60 antiproliferative screen (SRB)
# Conditions: Homo sapiens, OVCAR-4, 48 h, read-out: Growth inhibition (%)
row,SMILES,inhibition at 10 µM [%]
1,"O=C1Nc2ccc(Cl)cc2C1=Cc1ccc(OCc2cccnc2)cc1 (mixture of isomers) [Compound 5k, (E/Z)-5-Chloro-3-[4-(pyridin-3-ylmethoxy)benzylidene] indolin-2-one]",21.2
